Experimental data as given in patent US9492368B2, “External preparation for skin” (HAYASHIBARA CO., LTD., priority 2011, dated 2016).
Marks after values point to notes of the source that are not given here.

Columns and labels:
[1] = tested on: sphingomyelinase (SMase); assay: Real-time PCR gene expression in NHEK cells: sphingomyelinase; type: cell-based, human; conditions: 1 μM, seven days, relative to control = 1.00
Experimental: Since glucosyladenosines were confirmed in Experiment 5 to have an action of enhancing the differentiation of keratinocytes effective for skin improvement, a test for examining the change of the expression level of a molecular marker gene of keratinocytes, as an index, was performed as follows using a real-time PCR analysis method to examine the above action in more detail. The expression level of a ceramide-synthesis-related gene was also studied to examine the influence of glucosyladenosines on ceramide synthesis that had been known to have an important role in moisturizing the skin and barrier function of the skin and deemed to be effective for skin improvement. As genes for analysis, profilaggrin (PFG: a later differentiation marker) and involucrin (INV: an early differentiation marker) as differentiation markers of keratinocytes and β-glucocerebrosidase (GCase) and sphingomyelinase (SMase) as ceramide-synthesis-related enzymes were selected, and a gene for cyclophilin B (CypB) as an internal standard upon practicing PCR reaction was used (see FIG. 7). NHEK cells were inoculated to 6-well plate coated with collagen in an amount of 8×10^4 cells/1.5 ml/well, cultured with EpiLife medium, and cultured at 37° C. for two days under a 5 v/v % CO2 condition. Thereafter, the culture medium was removed, and the resulting cells were added with a fresh EpiLife medium containing 5′-glucosyladenosine, 3′-glucosyladenosine, or adenosine in a volume of 1.5 ml/well (giving a final concentration of 1 μM of any one of glucosyladenosines and adenosine), and cultured for seven days while replacing the medium with a fresh one containing any one of glucosyladenosines and adenosine in a volume of 1.5 ml/well every other day. After completion of the culture, each well was washed twice with PBS(K−), followed by adding 0.2 ml/well of 0.025% by mass of trypsin/EDTA solution to the resulting cells and allowing the cells to stand at an ambient temperature for five minutes to detach them from the plates. […]

[2] = tested on: profilaggrin; assay: Differentiation of keratinocytes: profilaggrin protein expression in NHEK cells by western blotting; type: cell-based, human; conditions: eight days, relative to no addition = 1
Text: For the anti-wrinkle action of glucosyladenosines, the effect of glucosyladenosines on keratinocytes in the skin was examined as follows using normal human epidermal keratinocytes commonly used for evaluating accelerators for differentiating keratinocytes in the skin. Using normal human epidermal keratinocytes (derived from human newborn and commercialized by Kurabo Industries Ltd., Okayama, Japan, and abbreviated as “NHEK cells”, hereinafter), the effects of glucosyladenosines on the differentiation of keratinocytes was evaluated by comparing the expression level of profilaggrin, as a marker protein of cells in the granular layer, which is specifically expressed in the cells when keratinocytes differentiate into the cells from those in the basal lamina and which is determined by the western blotting method using an antibody specific to the marker protein. In this experiment, the increment of profilaggrin means that cells in the granular layer have been increased as a result of accelerating the differentiation of keratinocytes in the basal lamina.
NHEK Cells, which had been suspended in EpiLife medium, commercialized by Caskade Biologics Inc., Oregon, USA, containing EDGS (EpiLife Defined Growth Supplement) (abbreviated as “EpiLife medium containing EDGS”, hereinafter), were inoculated to “FALCON MULTI-WELL™ 6WELL”, 6-well plate, commercialized by Becton, Dickinson and Co., NJ, USA, which had been coated with “Cellmatorix Type IV”, a product name of collagen, commercialized by Nitta Gelatin Inc., Osaka, Japan, in a cell amount of 5×10^5 cells/1.5 ml/well; and cultured at 37° C. for two days under a 5 v/v % CO2 condition. […] As control 1, adenosine was diluted with EpiLife medium to give a final concentration of 0.1 μM, 1 μM or 10 μM, and the dilution was added to the plates in a volume of 1.5 ml/well. As control 2, EpiLife medium was only added to plates in a volume of 1.5 ml/well. Thereafter, the cells were incubated for eight days while replacing the medium in each well with a fresh preparation of the same medium as added initially every other day. The culture medium in each well was removed by aspiration, and the resulting cells were washed by adding PBS, followed by adding an extraction buffer to the cells in a volume of 100 μl/well, detaching the cells from each well with a cell scraper, and collecting the cells in “EPPENDORF TUBE”, a product name of a 1.5 ml microtube, commercialized by Eppendorf AG, Hamburg, Germany. The collected cells were mixed by a vortex mixer, suspended, allowed to stand over ice for 30 min, and centrifuged at 15,000×g for 10 min at 4° C. to collect a supernatant for use as a sample for analysis. 20 mM Tris-HCl buffer (pH 8.0) containing 2% by mass of sodium dodecyl sulfate (SDS), 1 mM edetic acid, 20 μM phenylmethylsulfonyl fluoride (PMSF), 20 μM leupeptin, and 0.1 μM aprotinin was used as an extraction buffer.
Twelve microliters of the above sample for analysis was added to eight micriloters of 2.5 w/v % SDS aqueous solution containing 5 v/v % dithiothreitol (DTT), and the mixture was in usual manner subjected to SDS-polyacrylamide gel electrophoresis after charged on an SDS-polyacrylamide gel in an amount of 20 μg protein per lane. After completing the electrophoresis, proteins contained in the gel were in usual manner transferred to a nitrocellulose membrane, which was then soaked in “BlockAce”, a product name of a blocking solution commercialized by Dainippon Sumitomo Pharma Co., Ltd., Osaka, Japan, to inhibit non-specific reactions. […]

SMILES	Gene expression level SMase [1]	Expression level of profilaggrin ([2]; 0.1 μM in medium)	Expression level of profilaggrin ([2]; 1 μM in medium)	Expression level of profilaggrin ([2]; 10 μM in medium)
Nc1ncnc2c1ncn2[C@@H]1O[C@H](CO[C@H]2O[C@H](CO)[C@@H](O)[C@H](O)[C@H]2O)[C@@H](O)[C@H]1O [5′-Glucosyladenosine, α-D-glucopyranosyl-(1→5′)-adenosine]	2.57**	2.1*	3.8**	2.8**
Nc1ncnc2c1ncn2[C@@H]1O[C@H](CO)[C@@H](O)[C@H]1O [Adenosine, reference compound]	1.35	1.1	1.2	0.9
Nc1ncnc2c1ncn2[C@@H]1O[C@H](CO)[C@@H](O[C@H]2O[C@H](CO)[C@@H](O)[C@H](O)[C@H]2O)[C@H]1O [3′-Glucosyladenosine, α-D-glucopyranosyl-(1→3′)-adenosine]	2.03*	1.6*	2.4**	2.0**
